Values of other authors as cited in US8173361B2, “Method of determining metabolism of a test agent” (The General Hospital Corporation, priority 2003, dated 2012).

Conditions: treatment of chronic hepatitis B; clinical tests suspended

For `O=c1[nH]c(=O)n([C@@H]2O[C@H](CO)[C@@H](O)[C@@H]2F)cc1I` [fialuridine], the “drug-related toxicity in clinical tests” value is given as “drug-related liver failure leading to death in some patients”.
